According to PubChem BioAssay (NCI):
“And” between values parts separate entries of the source, which are not always exact repeats. Equal entries are not always repeated.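 Each compound was tested at five concentrations against cells in 96-well plates for 48 hours. GI50 marks 50% less growth. TGI denotes the concentration required for complete inhibition of growth.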

Experiments:
Experiment in all cases: DTP human tumour cell line panel, 48 h
786-0 renal = test system: 786-0 renal
A498 renal = test system: A498 renal
HCC-2998 colon = test system: HCC-2998 colon
HCT-116 colon = test system: HCT-116 colon
HCT-15 colon = test system: HCT-15 colon
IGROV1 ovarian = test system: IGROV1 ovarian
SN12C renal = test system: SN12C renal
SNB-75 CNS = test system: SNB-75 CNS
UACC-257 melanoma = test system: UACC-257 melanoma
UO-31 renal = test system: UO-31 renal

Row | SMILES | GI50 (786-0 renal) | TGI (786-0 renal) | GI50 (A498 renal) | TGI (A498 renal) | GI50 (HCC-2998 colon) | TGI (HCC-2998 colon) | GI50 (HCT-116 colon) | TGI (HCT-116 colon) | GI50 (HCT-15 colon) | TGI (HCT-15 colon) | GI50 (IGROV1 ovarian) | TGI (IGROV1 ovarian) | GI50 (SN12C renal) | TGI (SN12C renal) | GI50 (SNB-75 CNS) | TGI (SNB-75 CNS) | GI50 (UACC-257 melanoma) | TGI (UACC-257 melanoma) | GI50 (UO-31 renal) | TGI (UO-31 renal)
1 | NC(N)=N/N=C(/c1ccccc1)c1ccc(Cl)cc1 | 16 µM | > 100 µM | 4.71 µM | 28.7 µM | 16.3 µM | 47.5 µM | 4.71 µM | 63.6 µM | 5.8 µM | > 100 µM | 10.6 µM | 82.5 µM | 27.4 µM | > 100 µM | 6.17 µM | 70.2 µM | > 100 µM | > 100 µM | 17.2 µM | > 100 µM
2 | O=C1CSC(=S)N1Cc1cccnc1 | 3.67 µM | 11.2 µM | 22.7 µM | 56.2 µM | 19.8 µM | 36.9 µM | 3.36 µM | 11 µM | 2.87 µM | 11.8 µM | 4.4 µM | 19 µM | 14.5 µM | 29.2 µM | 16.2 µM | 72.5 µM | 5.97 µM | 21.9 µM | 4.61 µM | 17.6 µM
3 | O=C1/C(=C/c2ccc([N+](=O)[O-])o2)Oc2ccccc21 | 2.06 µM | 4.12 µM | 1.93 µM | 4.4 µM | 1.98 µM | 3.94 µM | 0.332 µM | 1.36 µM | 0.341 µM | 1.43 µM | 1.37 µM | 3.62 µM | 2.17 µM | 5.53 µM | 1.8 µM | 5.77 µM | 1.68 µM | 3.5 µM | 1.07 µM | 2.86 µM
4 | CC(C)=CCc1ccc(O)c(=O)cc1C(C)C | 0.816 µM | 5.4 µM | 5.18 µM | 64.7 µM | 0.583 µM | 29.8 µM | 0.469 µM | > 100 µM | 0.362 µM | > 100 µM | 0.43 µM | 16.1 µM | 0.844 µM | > 100 µM | 2.88 µM | > 100 µM | 1.59 µM | > 100 µM | 0.378 µM | 3.92 µM
5 | COc1ccc2c(c1)C(=O)/C(=C/c1ccc([N+](=O)[O-])s1)O2 | 1.47 µM | 6.73 µM | 2.05 µM | 6.51 µM | 0.514 µM | 2.05 µM | 0.204 µM | 0.401 µM | 0.219 µM | 0.697 µM | 0.349 µM | 1.2 µM | 0.483 µM | 2.32 µM | 0.627 µM | 2.47 µM | 0.819 µM | 3.11 µM | 0.232 µM | 0.614 µM
6 | O=C(N/N=c1/ccoc2cccnc12)N1CCN(c2ncccn2)CC1 | 0.291 µM | 2.59 µM | 0.503 µM | 2.87 µM | 0.905 µM | 6.59 µM | < 0.01 µM | 2.25 µM | < 0.01 µM | 10.1 µM | < 0.01 µM | 7.98 µM | 1.57 µM | 14.8 µM | 1.63 µM | 9.33 µM | 0.0387 µM | 5.15 µM | 0.397 µM | 3.96 µM
7 | CC1C=CC(C)C2(O)C(=O)NC(O)C12 (stereo unspecified) | – | > 100 µM | – | > 100 µM | – | > 100 µM | – | > 100 µM | – | > 100 µM | – | > 100 µM | – | > 100 µM | – | > 100 µM | – | > 100 µM | – | > 100 µM
8 | O=C(Nc1ccc([N+](=O)[O-])cc1C(=O)O)c1ccc([N+](=O)[O-])cc1 | – | > 100 µM | – | > 100 µM | – | > 100 µM | – | 53.9 µM | – | > 100 µM | – | > 100 µM | – | > 100 µM | – | > 100 µM | – | > 100 µM | – | > 100 µM
9 | C/C=C(\CCC1NCCc2c1[nH]c1ccccc21)[Si](C)(C)C (stereo unspecified) | 5.26 µM and 1.81 µM | 9.79 µM and 3.34 µM | – | 14 µM and 9.88 µM | 5.5 µM and 1.78 µM | 9.91 µM and 3.3 µM | 5.6 µM and 1.71 µM | 10.3 µM and 3.13 µM | – | 32.7 µM and 5.08 µM | 11.9 µM and 4 µM | 16.6 µM and 12.6 µM | – | 11.8 µM and 10.4 µM | – | 14.8 µM and 16.7 µM | 5.75 µM and 1.7 µM | 10.7 µM and 3.71 µM | 8.47 µM and 3.65 µM | 22.5 µM and 10.5 µM
